In brackets after ≈: the same amount, converted by molar mass.
Details: buffer; pH 7.4; 6.0 h; 150.0 µM

Structure (SMILES)	solubility kinetic
NC(=O)C1CCN(c2nc(-c3cccc4sc5ccccc5c34)cs2)CC1	< 1 µg/mL
Cn1ccc2cc(-c3csc(N4CCC(C(N)=O)CC4)n3)ccc21	32.9 µg/mL (≈ 96.7 µM)
COc1ccc(C(=O)NC2CCCc3c2[nH]c2c(Cl)cccc32)cc1OC (centres undefined)	1.14 µg/mL (≈ 2.95 µM)
O=C(Nc1ncnc2sc3c(c12)CCCCC3)c1ccco1	1.72 µg/mL (≈ 5.49 µM)
COc1cccc(CNc2ccc([S+](=O)([O-])Nc3ccccc3)cc2)c1Cl	< 1 µg/mL
COc1cc(-c2cc3c(nc2-c2ccccc2)nc(C(=O)NC2CCN(C)CC2)n3C)ccn1	> 67 µg/mL
O=C(Nc1ccc(S(=O)(=O)Nc2nccs2)cc1)c1ccc2ccccc2c1	< 1 µg/mL
O=C(Nc1ccc(OC(F)(F)F)cc1)c1sccc1NCc1ccnc2ccccc12	< 1 µg/mL
O=C(NCC1(c2nc(-c3ccccc3)cs2)CCOCC1)c1cccc(-c2noc(C(F)(F)F)n2)c1	4.96 µg/mL (≈ 9.65 µM)
COc1ccc2c(c1)CCc1c-2n[nH]c1C(=O)N1CCc2c(nc3cc(-c4ccccc4)[nH]n3c2=O)C1	< 1 µg/mL
CS(=O)(=O)N1CCN(c2nc(-c3ccc(Br)cc3)cs2)CC1	< 1 µg/mL
COc1c(O)cc2c(c1OC)-c1ccc(SC)c(=O)cc1C(NC(C)=O)CC2 (centres undefined)	> 59 µg/mL
O=C(c1cccc(F)c1)N1CCC2(CCN(Cc3cc(C(F)(F)F)cc(C(F)(F)F)c3)CC2)CC1	3.62 µg/mL (≈ 7.2 µM)
O=C(c1ccc2c(c1)OCO2)N1CCC(Cc2nc(-c3cnccn3)no2)CC1	> 39 µg/mL
CCCCOc1ccc(CC(=O)NO)cc1	13.6 µg/mL (≈ 60.9 µM)
CN(C(=O)c1cn2c(-c3ccc(C(F)(F)F)cc3)cnc2cn1)c1ccc(C#N)cc1	3.56 µg/mL (≈ 8.46 µM)
Cc1ccc(S(=O)(=O)Nc2cnccc2C(=O)Nc2nc(-c3ccc(Cl)cc3)cs2)cc1	< 1 µg/mL
Cc1cccc(C)c1Nc1c(-c2cccs2)nc2ncccn12	3.44 µg/mL (≈ 10.8 µM)
O=C(Nc1nnc(-c2ccco2)o1)c1ccc(Cl)cc1	28.2 µg/mL (≈ 97.3 µM)
Cc1ccc(-n2nc3c(N4CCCC(C(=O)NCc5ccccc5C)C4)nnc(C)c3c2C)cc1 (centres undefined)	< 1 µg/mL
CCOc1ccc(CCNC(=O)c2cc3cccnc3n2Cc2cccc(C)c2)cc1OCC	< 1 µg/mL
O=C(NCc1ccccc1)C1CCN(c2nc(-c3ccc(Br)cc3)cs2)CC1	2.48 µg/mL (≈ 5.43 µM)
COC(=O)CNC(=O)c1nc(-c2ccc([S+](C)(=O)[O-])cc2)c2cnccn12	> 57 µg/mL
COc1ccc2[nH]c(S(=O)Cc3ncc(C)c(OC)c3C)nc2n1 (centres undefined)	> 51 µg/mL
COc1ncccc1-c1cc2c(ccn2C(C)C)c(C(=O)NCc2c(C)cc(C)[nH]c2=O)n1	10.1 µg/mL (≈ 22.8 µM)
Fc1cc(Nc2nc(-c3ccncc3)nc3ccccc23)ccc1N1CCNCC1	4.02 µg/mL (≈ 10 µM)
Cc1ccc(N2CCN(c3cnn(-c4nc5ccccc5s4)c(=O)c3Cl)CC2C)cc1 (centres undefined)	< 1 µg/mL

Structure (SMILES)	solubility kinetic
COc1ccccc1S(=O)(=O)Nc1cnccc1C(=O)Nc1nc(-c2ccccc2)cs1	42.6 µg/mL (≈ 91.4 µM)
O=[S+]([O-])(Nc1ccccc1)c1ccc(NCc2cccc(C(F)(F)F)c2Cl)cc1	< 1 µg/mL
CN(C)CCCn1cc(C2=C(c3c[nH]c4ccccc34)C(=O)NC2=O)c2ccccc21	> 41 µg/mL
CCN(CC)S(=O)(=O)c1cccc(C(=O)Nc2ccc(C#N)cc2)c1	10.2 µg/mL (≈ 28.5 µM)
Cc1ccc(S(=O)(=O)Nc2cnccc2C(=O)Nc2ccc(N3CCOCC3)cc2)cc1	> 67 µg/mL
O=C(Nc1ccc(Cl)c(S(=O)(=O)N2CCOCC2)c1)c1ccc(S(=O)(=O)N2CCOCC2)cc1	< 1 µg/mL
O=C(NCCO)c1cccc(-c2cc(Nc3ccc(OC(F)(F)F)cc3)ncn2)c1	8.93 µg/mL (≈ 21.3 µM)
Cc1ccc(S(=O)(=O)Nc2cc(F)ccc2C(=O)Nc2nc(-c3ccccc3)cs2)cc1	< 1 µg/mL
O=C(NCCCO)c1ccc(-c2ncc3cnc(-c4cccc(F)c4)cn23)cc1	> 86 µg/mL
COc1ccc(-c2nc3ncccc3[nH]2)cc1	> 67 µg/mL
CCn1c(C(=O)N2CCCC(C(=O)NCCc3ccc(C)cc3)C2)cc2sccc21 (centres undefined)	17.1 µg/mL (≈ 40.3 µM)
Cc1ccc(S(=O)(=O)Nc2ccccc2CNc2nc(-c3ccccc3)cs2)cc1	< 1 µg/mL
CCOc1ccccc1N(CC(=O)N1CCOCC1)S(=O)(=O)c1ccc(SC)cc1	> 67 µg/mL
O=C(Nc1ncc(-c2ccccc2)s1)c1ccc(-c2cccc([N+](=O)[O-])c2)o1	< 1 µg/mL
Cc1cc(-c2nnc3n2CCCCC3)c(C)n1-c1ccc(F)cc1	35.3 µg/mL (≈ 109 µM)
CCCCCCCc1c(C)nc(N2CCOCC2)[nH]c1=O	4.18 µg/mL (≈ 14.3 µM)
Cc1ccc2oc3c(c(=O)c2c1)C(c1ccc(O)cc1)N(CCCN(C)C)C3=O (centres undefined)	> 58 µg/mL
O=C(O)CCNc1cc(N2CCc3ccccc3CC2)nc(-c2cccnc2)n1	> 58 µg/mL
Cc1ccc(C)c(SC2=NS(=O)(=O)c3ccccc32)c1	< 1 µg/mL
COc1ccc2c(c1)N(C[C@H](C)CN(C)C)c1ccccc1S2	> 48 µg/mL
Cl.c1ccc(Nc2nc(NCc3ccco3)c3ccccc3n2)cc1	< 1 µg/mL
COC(=O)c1ccc2c(c1)nc1n2[C@@H](CNC(C)=O)COC1	> 30 µg/mL
C[S+](=O)([O-])N1CCC(Cn2ccc3c(N4CCOCC4)nc(-c4cccc5[nH]ccc45)cc32)CC1	< 1 µg/mL
NC(=O)C1CCN(c2ncc(-c3ccc4c(c3)OC(F)(F)O4)s2)CC1	< 1 µg/mL
N#Cc1cnccc1-c1nc(Nc2ccc(F)c(F)c2)c2ccccc2n1	< 1 µg/mL
CCCCCCN(CCCCCC)C(=O)Cc1c(-c2ccc(F)cc2)[nH]c2ccccc12	< 1 µg/mL
COc1ccc(CCNc2ncnc3c2c(-c2ccccc2)cn3-c2cccc(Cl)c2)cc1OC	< 1 µg/mL
